Tests used:
Melanocortin receptor 3 = Melanocortin receptor 3 (Homo sapiens, UniProt P41968); assay type: cell membranes, HEK293, Membrane; details: hek293; also: in other assays of this panel Not Active means under 50% inhibition at 10 µM
[1] = biological target: Mitogen-activated protein kinase 14 (Homo sapiens, UniProt Q16539); design: species or system Escherichia coli;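 also: inhibition of p38alpha enzyme activity in a biochemical kinase assay, with myelin basic protein serving as substrate; in other assays of this panel Not Active means under 50% inhibition at 10 µM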
Sequence of Mitogen-activated protein kinase 14 (Q16539 whole entry): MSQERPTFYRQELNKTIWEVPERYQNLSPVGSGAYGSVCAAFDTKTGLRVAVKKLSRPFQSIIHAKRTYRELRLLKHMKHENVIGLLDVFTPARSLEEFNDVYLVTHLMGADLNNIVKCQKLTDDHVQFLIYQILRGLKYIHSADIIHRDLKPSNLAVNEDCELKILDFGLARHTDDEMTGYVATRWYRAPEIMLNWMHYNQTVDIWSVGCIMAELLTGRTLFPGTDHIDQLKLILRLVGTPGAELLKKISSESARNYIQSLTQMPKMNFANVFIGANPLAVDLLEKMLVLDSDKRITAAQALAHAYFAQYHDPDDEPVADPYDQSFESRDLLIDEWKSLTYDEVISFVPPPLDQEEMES

[2] = biological target: C-C chemokine receptor type 5 (Homo sapiens, UniProt P51681); assay type: cell membranes, Membrane; details: hek293; also: in other assays of this panel Not Active means under 50% inhibition at 10 µM
Sequence of C-C chemokine receptor type 5 (P51681 whole entry): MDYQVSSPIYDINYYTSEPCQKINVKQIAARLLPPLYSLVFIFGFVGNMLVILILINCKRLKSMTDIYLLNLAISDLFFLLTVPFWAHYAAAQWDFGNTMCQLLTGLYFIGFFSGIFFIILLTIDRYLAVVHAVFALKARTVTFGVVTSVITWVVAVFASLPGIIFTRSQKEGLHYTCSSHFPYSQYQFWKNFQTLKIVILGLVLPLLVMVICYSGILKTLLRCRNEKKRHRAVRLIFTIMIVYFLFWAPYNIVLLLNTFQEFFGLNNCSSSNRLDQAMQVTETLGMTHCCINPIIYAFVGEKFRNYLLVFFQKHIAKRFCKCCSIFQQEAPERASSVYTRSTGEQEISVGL

Cytochrome P450 2C9 = Cytochrome P450 2C9 (Homo sapiens, UniProt P11712); details: bti-tn-5b1-4; also: in other assays of this panel Not Active means under 50% inhibition at 10 µM
Sequence of Cytochrome P450 2C9 (P11712 whole entry): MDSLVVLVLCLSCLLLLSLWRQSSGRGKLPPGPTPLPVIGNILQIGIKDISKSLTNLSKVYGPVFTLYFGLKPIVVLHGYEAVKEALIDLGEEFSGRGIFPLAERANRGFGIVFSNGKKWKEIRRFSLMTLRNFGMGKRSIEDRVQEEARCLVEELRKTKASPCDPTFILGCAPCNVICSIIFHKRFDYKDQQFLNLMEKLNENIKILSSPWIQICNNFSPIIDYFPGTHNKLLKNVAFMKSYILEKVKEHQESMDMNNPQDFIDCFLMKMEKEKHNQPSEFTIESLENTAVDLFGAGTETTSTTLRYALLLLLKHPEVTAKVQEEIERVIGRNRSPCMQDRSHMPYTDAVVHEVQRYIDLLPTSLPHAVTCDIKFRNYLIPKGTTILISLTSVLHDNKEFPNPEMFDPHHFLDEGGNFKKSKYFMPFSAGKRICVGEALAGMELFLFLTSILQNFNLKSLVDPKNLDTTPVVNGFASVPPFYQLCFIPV

[3] = DRUGMATRIX: Glutamate, NMDA, Agonism radioligand binding (ligand: [3H] CGP-39653); assay type: cell membranes, Rattus norvegicus, Wistar, Cerebral cortex, Membrane; details: Not Active = under 50% inhibition at 10 µM
[4] = biological target: T1, Vasoactive intestinal polypeptide receptor 1 (Homo sapiens, UniProt P32241); assay type: cell membranes, Membrane; details: ht-29; also: in other assays of this panel Not Active means under 50% inhibition at 10 µM
T1 sequence (P32241 whole entry): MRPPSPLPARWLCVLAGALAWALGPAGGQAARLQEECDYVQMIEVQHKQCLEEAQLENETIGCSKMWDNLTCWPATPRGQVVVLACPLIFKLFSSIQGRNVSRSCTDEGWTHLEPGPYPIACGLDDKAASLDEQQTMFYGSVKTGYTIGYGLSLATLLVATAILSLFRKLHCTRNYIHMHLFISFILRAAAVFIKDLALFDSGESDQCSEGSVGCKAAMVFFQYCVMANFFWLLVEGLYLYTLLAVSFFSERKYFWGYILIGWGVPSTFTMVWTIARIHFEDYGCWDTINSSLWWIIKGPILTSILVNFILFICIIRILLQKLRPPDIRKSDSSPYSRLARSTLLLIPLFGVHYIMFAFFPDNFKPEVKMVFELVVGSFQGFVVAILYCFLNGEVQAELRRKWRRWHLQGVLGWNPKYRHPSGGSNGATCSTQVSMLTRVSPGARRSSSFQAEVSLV

[5] = DRUGMATRIX: Calcium Channel Type L, Phenylalkylamine radioligand binding (ligand: [3H] (-)-Desmethoxyverapamil (D-888)); assay type: cell membranes, Rattus norvegicus, Wistar, Brain, Membrane; details: Not Active = under 50% inhibition at 10 µM
[6] = biological target: T2, Amine oxidase [flavin-containing] A (Homo sapiens, UniProt P21397); test: DRUGMATRIX: Monoamine Oxidase MAO-A enzyme inhibition (substrate: Kynuramine); design: species or system BTI-TN-5B1-4; details: Not Active = under 50% inhibition at 10 µM
T2 sequence (P21397 whole entry): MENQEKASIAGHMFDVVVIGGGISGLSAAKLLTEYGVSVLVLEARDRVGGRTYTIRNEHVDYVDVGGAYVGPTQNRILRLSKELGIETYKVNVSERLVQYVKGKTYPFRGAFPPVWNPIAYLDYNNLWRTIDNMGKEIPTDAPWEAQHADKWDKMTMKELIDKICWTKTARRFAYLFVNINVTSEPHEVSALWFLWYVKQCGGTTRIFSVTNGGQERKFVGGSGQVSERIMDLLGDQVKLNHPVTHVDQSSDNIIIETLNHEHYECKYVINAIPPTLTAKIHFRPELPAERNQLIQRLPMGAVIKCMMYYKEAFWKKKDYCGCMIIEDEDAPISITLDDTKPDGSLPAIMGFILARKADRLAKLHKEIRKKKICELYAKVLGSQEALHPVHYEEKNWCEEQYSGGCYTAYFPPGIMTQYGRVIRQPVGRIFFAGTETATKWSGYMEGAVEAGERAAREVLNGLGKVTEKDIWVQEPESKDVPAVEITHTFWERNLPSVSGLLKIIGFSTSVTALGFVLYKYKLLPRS

Sequence of Melanocortin receptor 3 (P41968 whole entry): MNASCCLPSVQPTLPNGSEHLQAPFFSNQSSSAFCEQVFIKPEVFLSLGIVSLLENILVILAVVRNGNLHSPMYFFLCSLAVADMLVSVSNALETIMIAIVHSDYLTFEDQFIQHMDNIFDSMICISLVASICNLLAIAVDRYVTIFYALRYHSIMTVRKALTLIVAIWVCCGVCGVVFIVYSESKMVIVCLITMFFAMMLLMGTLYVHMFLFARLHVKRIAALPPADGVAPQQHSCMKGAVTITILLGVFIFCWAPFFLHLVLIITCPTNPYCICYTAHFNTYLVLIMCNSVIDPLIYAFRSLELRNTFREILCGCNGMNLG

SMILES	IC50 (Melanocortin receptor 3)	IC50 [1]	IC50 [2]	IC50 (Cytochrome P450 2C9)	Ki (Cytochrome P450 2C9)	IC50 [3]	Ki [3]	IC50 [4]	IC50 [5]	Ki [5]	IC50 ([6]; bti-tn-5b1-4)	IC50 ([5]; read-out: IC50)	Ki ([5]; read-out: Ki)	IC50 ([1]; read-out: IC50)	IC50 ([6]; read-out: IC50)
C[C@@H]1CC[C@@]2(OC1)O[C@H]1[C@@H](O)[C@H]3[C@@H]4CC[C@H]5C[C@@H](O[C@@H]6O[C@H](CO)[C@H](O[C@@H]7O[C@H](CO)C(O)[C@H](O[C@@H]8OC[C@@H](O)[C@H](O)[C@H]8O)[C@H]7O[C@@H]7O[C@H](CO)[C@H](O)[C@H](O[C@@H]8O[C@H](CO)[C@@H](O)[C@H](O)[C@H]8O)[C@H]7O)[C@H](O)[C@H]6O)[C@H](O)C[C@]5(C)[C@H]4CC[C@]3(C)[C@H]1[C@@H]2C (some centres not stated) [DIGITONIN]	Not Active	Not Active	Not Active	Not Active	Not Active	Not Active	Not Active	Not Active	Not Active	Not Active	Not Active				
OC(CCCN1CCCCC1)(c1ccccc1)c1ccccc1 [DIPHENIDOL]	Not Active	Not Active	Not Active	Not Active	Not Active	Not Active	Not Active	Not Active			Not Active	4.5 µM	4.38 µM		
C[C@H]1O[C@@H](n2cc(F)c(=O)[nH]c2=O)[C@H](O)[C@@H]1O [DOXIFLURIDINE]	Not Active	Not Active	Not Active	Not Active	Not Active	Not Active	Not Active	Not Active	Not Active	Not Active	Not Active				
Cn1c(=O)c2c(ncn2CC(O)CO)n(C)c1=O (configuration not stated) [DYPHYLLINE]	Not Active	Not Active	Not Active	Not Active	Not Active	Not Active	Not Active	Not Active	Not Active	Not Active	Not Active				
CC[C@H]1CN2CCc3cc(OC)c(OC)cc3[C@@H]2C[C@@H]1C[C@H]1NCCc2cc(OC)c(OC)cc21 [EMETINE]	Not Active	Not Active	Not Active	Not Active	Not Active	Not Active	Not Active	Not Active	Not Active	Not Active	Not Active				
C[C@@H](CO)NC(=O)[C@@H]1C=C2c3cccc4[nH]cc(c34)C[C@H]2N(C)C1 [ERGONOVINE]	Not Active	Not Active	Not Active	Not Active	Not Active	Not Active	Not Active	Not Active	Not Active	Not Active	Not Active				
COC(=O)CCc1ccc(OCC(O)CNC(C)C)cc1 (configuration not stated) [ESMOLOL]	Not Active	Not Active	Not Active	Not Active	Not Active	Not Active	Not Active	Not Active	Not Active	Not Active	Not Active				
CCC1(C)CC(=O)NC1=O (configuration not stated) [ETHOSUXIMIDE]	Not Active	Not Active	Not Active	Not Active	Not Active	Not Active	Not Active	Not Active	Not Active	Not Active	Not Active				
C=CCc1ccc(O)c(OC)c1 [EUGENOL]	Not Active	Not Active	Not Active	Not Active	Not Active	Not Active	Not Active	Not Active	Not Active	Not Active	Not Active				
CC(C(=O)O)c1cccc(Oc2ccccc2)c1 (configuration not stated) [FENOPROFEN]	Not Active	Not Active	Not Active	Not Active	Not Active	Not Active	Not Active	Not Active	Not Active	Not Active	Not Active				
Nc1ccn([C@@H]2O[C@H](CO)[C@@H](O)C2(F)F)c(=O)n1 [GEMCITABINE]	Not Active	Not Active	Not Active	Not Active	Not Active	Not Active	Not Active	Not Active	Not Active	Not Active	Not Active				
N=C(N)NC(=O)Cc1c(Cl)cccc1Cl [GUANFACINE]	Not Active	Not Active	Not Active	Not Active	Not Active	Not Active	Not Active	Not Active	Not Active	Not Active	Not Active				
Oc1c(Cl)cc(Cl)c(Cl)c1Cc1c(O)c(Cl)cc(Cl)c1Cl [HEXACHLOROPHENE]	Not Active		Not Active	Not Active	Not Active	Not Active	Not Active	Not Active	Not Active	Not Active	Not Active			0.0876 µM	
NNc1nncc2ccccc12 [HYDRALAZINE]	Not Active	Not Active	Not Active	Not Active	Not Active	Not Active	Not Active	Not Active	Not Active	Not Active	Not Active				
CC(C)NNC(=O)c1ccncc1 [IPRONIAZID]	Not Active	Not Active	Not Active	Not Active	Not Active	Not Active	Not Active	Not Active	Not Active	Not Active	Not Active				
Cc1c(OCC(F)(F)F)ccnc1C[S+]([O-])c1nc2ccccc2[nH]1 (configuration not stated) [LANSOPRAZOLE]	Not Active	Not Active	Not Active	Not Active	Not Active	Not Active	Not Active	Not Active	Not Active	Not Active	Not Active				
O=c1cc(N2CCOCC2)oc2c(-c3ccccc3)cccc12 [LY-294002]	Not Active	Not Active	Not Active	Not Active	Not Active	Not Active	Not Active	Not Active	Not Active	Not Active	Not Active				
COc1ccc2[nH]cc(CCNC(C)=O)c2c1 [MELATONIN]	Not Active	Not Active	Not Active	Not Active	Not Active	Not Active	Not Active	Not Active	Not Active	Not Active	Not Active				
NC(=O)C[S+]([O-])C(c1ccccc1)c1ccccc1 (configuration not stated) [MODAFINIL]	Not Active	Not Active	Not Active	Not Active	Not Active	Not Active	Not Active	Not Active	Not Active	Not Active	Not Active				
CCN(CC)CCOCCC1=CCC2CC1C2(C)C (configuration not stated) [MYRTECAINE]	Not Active	Not Active	Not Active	Not Active	Not Active	Not Active	Not Active	Not Active	Not Active	Not Active	Not Active				
O=C(O)c1cccnc1Nc1cccc(C(F)(F)F)c1 [NIFLUMIC ACID]	Not Active	Not Active	Not Active	Not Active	Not Active	Not Active	Not Active	Not Active	Not Active	Not Active	Not Active				
COC(=O)Nc1nc2ccc(C(=O)c3cccs3)cc2[nH]1 [NOCODAZOLE]	Not Active	Not Active	Not Active	Not Active	Not Active	Not Active	Not Active	Not Active	Not Active	Not Active					24.1 µM
